This is an account of results in US11738008B2, “N-methyl-D-aspartic acid receptor modulators” (Emory University, priority 2018, dated 2023).

Converted amounts (≈) assume the structure as drawn. Like-named read-outs stand apart in the source and are kept apart here.

Data set [1] deals with rat GluN1/GluN2C (Rattus norvegicus, UniProt Q00961). The experiment in a line: Two-electrode voltage clamp recordings in Xenopus laevis oocytes, potentiation of GluN1/GluN2C. In kind it is cell-based. As to conditions: for GluN2C potentiation (NE class): 30 μM; for GluN2C Max %: maximal response, current without potentiator = 100%. The procedure: (§1) Xenopus laevis oocytes were purchased unfertilized from Ecocyte (Austin, Tex.). The oocytes were injected with mRNA to express recombinant rat GluN1/GluN2A, GluN1/GluN2B, GluN1/GluN2C, and GluN1/GluN2D and two-electrode voltage clamp (TEVC) recordings were performed. Drs. S. Heinemann (Salk Institute), S. Nakanishi (Kyoto University), and P. Seeburg (University of Heidelberg) provided the cDNAs for rat GluN1-1a (GenBank accession numbers U11418 and U08261, referred to as GluN1 henceforth), GluN2A (D13211), GluN2B (U11419), GluN2C (M91563), and GluN2D (D13213). GluN2C and GluN2D were altered according to literature precedent. […] To prevent the current increase typically seen during experiments with oocytes expressing GluN1/GluN2A receptors, the oocytes were either injected with 20 nL of 100 mM K-BAPTA (potassium 1,2-bis(o-aminophenoxy)ethane-N,N,N,N-tetraacetic acid) or pretreated with 50 μM BAPTA-AM (1,2-bis(o-aminophenoxy)ethane-N,N,N,N-tetraacetic acid tetraacetoxymethyl ester) for 10 minutes.
In general terms: In two-electrode clamp one electrode senses voltage and the other passes current.

Data set [2] deals with rat GluN1/GluN2D (Rattus norvegicus, UniProt Q62645). Description: Two-electrode voltage clamp recordings in Xenopus laevis oocytes, potentiation of GluN1/GluN2D. In kind it is cell-based. As to conditions: for GluN2D potentiation (NE class): 30 μM; for GluN2D Max %: maximal response, current without potentiator = 100%. How it is done: as §1
The conditions of data set [3]: nephelometer, oocyte recording solution.
Data set [4] addresses rat GluN1/GluN2C (Rattus norvegicus, UniProt P35439+Q00961). The experiment in a line: Two-electrode voltage clamp recordings in Xenopus laevis oocytes, potentiation of GluN1/GluN2C. In kind it is cell-based. The procedure: as §1
Data set [5] addresses rat GluN1/GluN2D (Rattus norvegicus, UniProt P35439+Q62645). The experiment in a line: Two-electrode voltage clamp recordings in Xenopus laevis oocytes, potentiation of GluN1/GluN2D. In kind it is cell-based. How it is done: as §1
For another data set, the system named is GluN2C/D. Conditions: Mullasseril et al. 2010; read-out: potency at GluN2C/D; cited from earlier work.
The test system of data set [6] is GluN2A/B, AMPAR, or kainate receptors. As to conditions: previously described; cited from earlier work.
In data set [7] the test system is schizophrenia-like symptoms. Conditions: mice; Suryavanshi et al. 2014; cited from earlier work.
Data set [8] deals with fear and extinction learning. As to conditions: mice; Ogden et al. 2014; cited from earlier work.

Sequence of rat GluN1/GluN2C (Rattus norvegicus, UniProt P35439+Q00961) (Q00961 20-1237, other chains not shown): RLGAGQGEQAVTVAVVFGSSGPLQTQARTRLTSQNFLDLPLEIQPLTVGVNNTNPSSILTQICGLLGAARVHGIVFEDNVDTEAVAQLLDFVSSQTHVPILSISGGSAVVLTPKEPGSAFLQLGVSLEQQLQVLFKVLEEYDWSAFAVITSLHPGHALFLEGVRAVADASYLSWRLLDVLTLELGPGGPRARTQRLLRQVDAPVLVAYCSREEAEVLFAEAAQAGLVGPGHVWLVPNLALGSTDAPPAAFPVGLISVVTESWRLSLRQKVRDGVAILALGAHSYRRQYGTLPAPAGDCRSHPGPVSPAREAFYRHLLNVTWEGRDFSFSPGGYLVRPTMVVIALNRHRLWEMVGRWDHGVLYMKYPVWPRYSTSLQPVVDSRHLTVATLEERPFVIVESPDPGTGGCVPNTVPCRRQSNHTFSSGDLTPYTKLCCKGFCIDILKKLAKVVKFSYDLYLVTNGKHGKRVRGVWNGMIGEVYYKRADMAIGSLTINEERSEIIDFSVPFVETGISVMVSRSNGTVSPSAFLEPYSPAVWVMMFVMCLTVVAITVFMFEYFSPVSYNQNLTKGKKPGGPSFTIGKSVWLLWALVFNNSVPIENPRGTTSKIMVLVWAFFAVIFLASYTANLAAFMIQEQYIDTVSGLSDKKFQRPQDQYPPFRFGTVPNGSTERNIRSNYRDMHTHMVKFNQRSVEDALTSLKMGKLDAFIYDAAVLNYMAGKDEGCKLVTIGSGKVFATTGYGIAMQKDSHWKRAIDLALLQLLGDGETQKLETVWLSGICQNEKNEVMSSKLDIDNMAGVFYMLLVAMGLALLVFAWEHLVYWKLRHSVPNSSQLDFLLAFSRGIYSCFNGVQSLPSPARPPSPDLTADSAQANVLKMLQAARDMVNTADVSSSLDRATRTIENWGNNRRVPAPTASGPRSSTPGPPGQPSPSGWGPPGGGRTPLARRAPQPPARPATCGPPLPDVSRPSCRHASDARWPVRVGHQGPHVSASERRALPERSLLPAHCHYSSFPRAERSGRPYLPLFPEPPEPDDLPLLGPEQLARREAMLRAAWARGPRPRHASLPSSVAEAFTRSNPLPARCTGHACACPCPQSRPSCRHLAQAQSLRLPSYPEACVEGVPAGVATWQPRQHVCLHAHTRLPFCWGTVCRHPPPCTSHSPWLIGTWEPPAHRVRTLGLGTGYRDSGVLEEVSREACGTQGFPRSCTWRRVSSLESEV
Sequence of rat GluN1/GluN2C (Rattus norvegicus, UniProt Q00961) (Q00961 20-1237, other chains not shown): as above
Sequence of rat GluN1/GluN2D (Rattus norvegicus, UniProt P35439+Q62645) (Q62645 28-1323, other chains not shown): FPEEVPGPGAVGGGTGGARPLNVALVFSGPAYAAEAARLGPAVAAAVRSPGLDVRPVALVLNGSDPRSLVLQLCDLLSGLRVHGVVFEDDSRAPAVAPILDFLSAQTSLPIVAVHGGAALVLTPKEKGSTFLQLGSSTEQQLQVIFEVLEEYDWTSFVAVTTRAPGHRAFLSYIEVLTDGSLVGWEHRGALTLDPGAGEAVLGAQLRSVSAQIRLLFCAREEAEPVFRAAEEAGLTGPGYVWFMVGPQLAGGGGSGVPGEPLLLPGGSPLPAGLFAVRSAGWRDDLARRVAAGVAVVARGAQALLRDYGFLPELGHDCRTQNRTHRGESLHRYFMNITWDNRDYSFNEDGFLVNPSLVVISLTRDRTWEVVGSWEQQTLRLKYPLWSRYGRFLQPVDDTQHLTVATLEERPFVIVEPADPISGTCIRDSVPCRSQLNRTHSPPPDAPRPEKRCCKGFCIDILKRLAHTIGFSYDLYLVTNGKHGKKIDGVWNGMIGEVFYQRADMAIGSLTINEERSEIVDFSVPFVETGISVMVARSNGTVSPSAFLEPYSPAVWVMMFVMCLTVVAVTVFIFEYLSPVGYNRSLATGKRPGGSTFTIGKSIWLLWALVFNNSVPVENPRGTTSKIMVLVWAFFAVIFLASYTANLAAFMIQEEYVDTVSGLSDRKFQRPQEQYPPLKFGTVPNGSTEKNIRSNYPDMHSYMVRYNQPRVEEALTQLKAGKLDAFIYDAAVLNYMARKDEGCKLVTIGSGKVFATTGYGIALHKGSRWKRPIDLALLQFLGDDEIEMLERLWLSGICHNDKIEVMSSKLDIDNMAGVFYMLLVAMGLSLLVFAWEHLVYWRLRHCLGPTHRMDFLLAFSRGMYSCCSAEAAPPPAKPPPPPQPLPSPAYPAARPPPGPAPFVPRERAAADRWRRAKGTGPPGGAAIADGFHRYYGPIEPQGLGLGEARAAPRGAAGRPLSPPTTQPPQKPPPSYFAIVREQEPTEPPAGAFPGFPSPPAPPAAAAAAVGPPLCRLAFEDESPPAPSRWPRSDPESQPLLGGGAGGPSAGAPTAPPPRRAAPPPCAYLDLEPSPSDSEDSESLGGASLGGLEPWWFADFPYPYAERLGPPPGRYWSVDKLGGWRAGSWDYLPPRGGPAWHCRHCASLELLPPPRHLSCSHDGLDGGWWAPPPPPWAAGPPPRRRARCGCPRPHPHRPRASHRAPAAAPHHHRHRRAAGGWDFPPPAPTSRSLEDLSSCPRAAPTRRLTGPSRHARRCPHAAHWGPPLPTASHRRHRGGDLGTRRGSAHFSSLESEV
Sequence of rat GluN1/GluN2D (Rattus norvegicus, UniProt Q62645) (Q62645 28-1323, other chains not shown): as above

Consider `COc1ccc(OCC2c3cnn(C)c3CCN2C(=S)c2cccc(Cl)c2)cc1` (centres unmarked) [1180-413, (3-Chlorophenyl)(4-((4-methoxyphenoxy)methyl)-1-methyl-1,4,6,7-tetrahydro-5H-pyrazolo[4,3-c]pyridin-5-yl)methanethione], for which, on rat GluN1/GluN2C [1], the “GluN2C potentiation (NE class)” value is listed as “NE (NE indicates less than 20% potentiation at 30 μM)”. Besides, at rat GluN1/GluN2D [2], the “GluN2D potentiation (NE class)” value is recorded as “NE (NE indicates less than 20% potentiation at 30 μM)”.
For orientation: Solubility means the dissolved amount per volume that the medium holds. The low end stands for a poorly soluble substance, the high end for a readily soluble substance. With `COc1ccc(OCC2c3cccn3CC(=O)N2Cc2cccc(F)c2)cc1` (centres unmarked) [1180-453, 2-(3-fluorobenzyl)-1-((4-methoxyphenoxy)methyl)-1,2-dihydropyrrolo[1,2-a]pyrazin-3(4H)-one], the “GluN2C (max) (%)” value on rat GluN1/GluN2C [1] is reported as “(348) %”. Also, on rat GluN1/GluN2D [2], the “GluN2D (max) (%)” value was “(334) %”. Further, the “Solubility” value in [3] is 74 µM (≈ 28.2 µg/mL).
Regarding `COc1ccc(OCC2c3ccsc3CCN2C(=O)c2cccc(Cl)c2)cc1` (centres unmarked) [1180-401, (3-Chlorophenyl)(4-((4-methoxyphenoxy)methyl)-6,7-dihydrothieno[3,2-c]pyridin-5(4H)-yl)methanone], the figures for the EC50 on rat GluN1/GluN2C [4] (read-out: GluN2C EC50) and at rat GluN1/GluN2D [5] (read-out: GluN2D EC50) were 3.6 µM and 4.7 µM, respectively. At rat GluN1/GluN2C [1], the “GluN2C Max %” value is given as 320%. For the same compound, on rat GluN1/GluN2D [2], the “GluN2D Max %” value is reported as 369%.
As for `COc1ccc(OCC2c3cc(OC)c(OC)cc3CCN2C(=O)c2cccc(Cl)c2)cc1` (centres unmarked) [CIQ], the “GluN2C (max) (%)” value on rat GluN1/GluN2C [1] is given as 233%. The “GluN2D (max) (%)” value on rat GluN1/GluN2D [2] was determined as 215%. Further, in the data set on GluN2C/D, the EC50 is 5 to 10 µM. In addition, the “activity at GluN2A/B, AMPAR, or kainate receptors” value in data set [6] is “no activity”. Further, in data set [7], the “effect on schizophrenia-like symptoms in animal models” value is listed as “attenuate schizophrenia-like symptoms”. In [8], the “effect on fear and extinction learning in animal models” value was “facilitate the retention of fear and extinction learning”.
Turning to `COc1ccc(OCC2c3ccsc3CCN2C(=S)c2cccc(Cl)c2)cc1` (centres unmarked) [1180-414, (3-Chlorophenyl)(4-((4-methoxyphenoxy)methyl)-6,7-dihydrothieno[3,2-c]pyridin-5(4H)-yl)methanethione], at rat GluN1/GluN2C [1], the “GluN2C potentiation (NE class)” value is “NE (NE indicates less than 20% potentiation at 30 μM)”. Besides, the “GluN2D potentiation (NE class)” value at rat GluN1/GluN2D [2] is recorded as “NE (NE indicates less than 20% potentiation at 30 μM)”.
On to `COc1ccc(OCC2c3occc3CCN2C(=O)c2cccc(Cl)c2)cc1` (centres unmarked) [1180-403, (3-Chlorophenyl)(7-((4-methoxyphenoxy)methyl)-4,7-dihydrofuro[2,3-c]pyridin-6(5H)-yl)methanone], for which the EC50 at rat GluN1/GluN2C [4] (read-out: GluN2C EC50) is 7.4 µM; on rat GluN1/GluN2D [5] (read-out: GluN2D EC50), 9.6 µM. The “GluN2C Max %” value on rat GluN1/GluN2C [1] was found to be 353%. Moreover, the “GluN2D Max %” value on rat GluN1/GluN2D [2] was found to be 527%.
On to `COc1ccc(OCC2c3cccn3CCN2C(=O)c2cccc(C(F)(F)F)c2)cc1` (racemic) [1180-450, (1-((4-methoxyphenoxy)methyl)-3,4-dihydropyrrolo[1,2-a]pyrazin-2(1H)-yl)(3-(trifluoromethyl)phenyl)methanone], for which the EC50 at rat GluN1/GluN2C [4] (read-out: GluN2C pEC50 [95% CI] (converted)) is 1.58 µM; at rat GluN1/GluN2D [5] (read-out: GluN2D pEC50 [95% CI] (converted)), 2 µM. In addition, the “GluN2C (max) (%)” value on rat GluN1/GluN2C [1] is listed as “(381) %”. In addition, on rat GluN1/GluN2D [2], the “GluN2D (max) (%)” value was “(288) %”. The “Solubility” value in data set [3] came to 58 µM (≈ 25 µg/mL).
As for `COc1ccc(OC[C@H]2c3cccn3CCN2C(=O)c2cccc(C(F)(F)F)c2)cc1` [R-(+)-1180-450], the “GluN2C (max) (%)” value at rat GluN1/GluN2C [1] was 464%. In addition, the “GluN2D (max) (%)” value at rat GluN1/GluN2D [2] was found to be 542%.
As for `COc1ccc(OCC2c3cnsc3CCN2C(=O)c2cccc(Cl)c2)cc1` (centres unmarked) [1180-411, (3-Chlorophenyl)(4-((4-methoxyphenoxy)methyl)-6,7-dihydroisothiazolo[4,5-c]pyridin-5(4H)-yl)methanone], the EC50 at rat GluN1/GluN2C [4] (read-out: GluN2C EC50) was found to be 11 µM; on rat GluN1/GluN2D [5] (read-out: GluN2D EC50), 15 µM. Also, on rat GluN1/GluN2C [1], the “GluN2C Max %” value turned out to be 194%. Moreover, the “GluN2D Max %” value on rat GluN1/GluN2D [2] is 238%.
In the case of `COc1ccc(OCC2c3sc(C)nc3CCN2C(=O)c2cccc(Cl)c2)cc1` (centres unmarked) [1180-402, (3-Chlorophenyl)(4-((4-methoxyphenoxy)methyl)-2-methyl-6,7-dihydrothiazolo[5,4-c]pyridin-5(4H)-yl)methanone], on rat GluN1/GluN2C [1], the “GluN2C potentiation (NE class)” value was “NE (NE indicates less than 20% potentiation at 30 μM)”. Moreover, the “GluN2D potentiation (NE class)” value on rat GluN1/GluN2D [2] was “NE (NE indicates less than 20% potentiation at 30 μM)”.
As to `COc1ccc(OCC2c3sccc3CCN2C(=O)c2cccc(Cl)c2)cc1` (centres unmarked) [1180-400, (3-Chlorophenyl)(7-((4-methoxyphenoxy)methyl)-4,7-dihydrothieno[2,3-c]pyridin-6(5H)-yl)methanone], the EC50 at rat GluN1/GluN2C [4] (read-out: GluN2C EC50) is 3.8 µM; at rat GluN1/GluN2D [5] (read-out: GluN2D EC50), 3.5 µM. In addition, the “GluN2C Max %” value at rat GluN1/GluN2C [1] stood at 288%. Further, the “GluN2D Max %” value at rat GluN1/GluN2D [2] was found to be 391%.
With `COc1ccc(OCC2c3cnn(C)c3CCN2C(=O)c2cccc(Cl)c2)cc1` (centres unmarked) [1180-407, (3-Chlorophenyl)(4-((4-methoxyphenoxy)methyl)-1-methyl-1,4,6,7-tetrahydro-5H-pyrazolo[4,3-c]pyridin-5-yl)methanone], at rat GluN1/GluN2C [1] (@ 100 μM), the “GluN2C response at 100 μM” value is 207% @ 100 μM. For the same compound, the “GluN2D response at 100 μM” value at rat GluN1/GluN2D [2] (@ 100 μM) worked out at 216% @ 100 μM.
Consider `COc1ccc(OCC2c3sccc3CCN2C(=O)/C=C/C(F)(F)F)cc1` (centres unmarked) [1180-405, (E)-4,4,4-trifluoro-1-(7-((4-methoxyphenoxy)methyl)-4,7-dihydrothieno[2,3-c]pyridin-6(5H)-yl)but-2-en-1-one], for which the EC50 on rat GluN1/GluN2C [4] (read-out: GluN2C EC50) and at rat GluN1/GluN2D [5] (read-out: GluN2D EC50) was 13 µM each time. Also, the “GluN2C Max %” value at rat GluN1/GluN2C [1] turned out to be 282%. For the same compound, on rat GluN1/GluN2D [2], the “GluN2D Max %” value worked out at 317%.
For the compound `COc1ccc(OCC2c3sccc3CCN2C(=O)c2ccc(Cl)s2)cc1` (centres unmarked) [1180-404, (5-Chlorothiophen-2-yl)(7-((4-methoxyphenoxy)methyl)-4,7-dihydrothieno[2,3-c]pyridin-6(5H)-yl)methanone], the EC50 amounted to 5.1 µM at rat GluN1/GluN2C [4] (read-out: GluN2C EC50) and 7.4 µM on rat GluN1/GluN2D [5] (read-out: GluN2D EC50). For the same compound, at rat GluN1/GluN2C [1], the “GluN2C Max %” value turned out to be 269%. Further, the “GluN2D Max %” value on rat GluN1/GluN2D [2] came to 352%.
For `COc1ccc(OC[C@H]2c3cccn3CC(=O)N2Cc2cccc(C(F)(F)F)c2)cc1` [R-(+)-1180-447], the “GluN2C (max) (%)” value at rat GluN1/GluN2C [1] worked out at 276%. The “GluN2D (max) (%)” value at rat GluN1/GluN2D [2] was found to be 332%.
